{"source": "patent US20230000813A1", "about": "“COMPOUND FOR THE TREATMENT OF BOVINE OR SWINE RESPIRATORY DISEASE” (Intervet Inc., priority 2016, published 2023)", "experiment_in_all_cases": "MIC, broth-microdilution (CLSI VET01-A4)", "format_in_all_cases": "cell-based", "key": {"[1]": {"tested_on": "Mannheimia haemolytica MH 13065 (XB0446-6003.9, BRD field isolate)", "outline": "(§1)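 Broth microdilution per CLSI VET01-A4 using doubling dilution series of compound. MIC taken as the lowest concentration with no turbidity visible to the unaided eye, interpreted per CLSI VET01-S3.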"}, "[2]": {"tested_on": "Mannheimia haemolytica MH 13093 (XB0472-6014.1, BRD field isolate)", "outline": "as §1"}, "[3]": {"tested_on": "Mannheimia haemolytica MH 6374 (ATCC 33396, reference strain)", "conditions": "Mannheimia haemolytica MH 6374; read-out: MIC MH 6374", "outline": "(§2)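 Visual no-turbidity endpoint over twofold compound dilutions in microdilution trays, interpreted according to CLSI VET01-S3.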"}, "[4]": {"tested_on": "Pasteurella multocida PM 12080 (IV102277-0093, BRD field isolate)", "conditions": "Pasteurella multocida PM 12080", "outline": "as §2"}, "[5]": {"tested_on": "Mannheimia haemolytica MH 12587 (1071, BRD field isolate, macrolide-resistance: erm+, E+)", "conditions": "Mannheimia haemolytica MH 12587, macrolide-resistant", "outline": "as §2"}, "[6]": {"tested_on": "Pasteurella multocida PM 6267 (P 2225 (L386), reference strain, mouse infection strain)", "conditions": "Pasteurella multocida PM 6267", "outline": "as §2"}, "[7]": {"tested_on": "Mannheimia haemolytica MH 6357 (M7/2, reference strain, cattle infection strain)", "conditions": "Mannheimia haemolytica MH 6357; read-out: MIC MH 6357", "outline": "as §2"}, "[8]": {"tested_on": "Pasteurella multocida PM 10775 (080130003051, BRD field isolate)", "conditions": "Pasteurella multocida PM 10775", "outline": "as §2"}, "[9]": {"tested_on": "Pasteurella multocida PM 6391 (ATCC 43137, reference strain)", "conditions": "Pasteurella multocida PM 6391; for MIC: read-out: MIC PM 6391", "outline": "as §2"}, "[10]": {"tested_on": "Mannheimia haemolytica MH 10720 (154, BRD field isolate)", "conditions": "Mannheimia haemolytica MH 10720", "outline": "as §2"}}, "data": [{"smiles": "CC(C)(C(NC(=O)c1ccc(C#Cc2ccc(CNCc3ccncc3)cc2)cc1)C(=O)NO)S(C)(=O)=O", "note": "(stereo not drawn) [C. 607]", "values": [{"measurement": "MIC", "setting": "[1]", "value": 0.4, "unit": "µM"}, {"measurement": "MIC", "setting": "[2]", "value": 0.4, "unit": "µM"}, {"measurement": "MIC", "setting": "[3]", "value": 0.4, "unit": "µM"}, {"measurement": "MIC PM 12080", "setting": "[4]", "value": "<=0.1 μM"}, {"measurement": "MIC MH 12587", "setting": "[5]", "value": 0.8, "unit": "µM"}, {"measurement": "MIC PM 6267", "setting": "[6]", "value": "<=0.1 μM"}, {"measurement": "MIC", "setting": "[7]", "value": 0.4, "unit": "µM"}, {"measurement": "MIC PM 10775", "setting": "[8]", "value": "<=0.1 μM"}, {"measurement": "MIC PM 6391", "setting": "[9]", "value": "<=0.1 μM"}, {"measurement": "MIC MH 10720", "setting": "[10]", "value": "<=0.1 μM"}]}, {"smiles": "CC(C)(C(NC(=O)c1ccc(C#Cc2ccc(CNCc3cccnc3)cc2)cc1)C(=O)NO)S(C)(=O)=O", "note": "(stereo not drawn) [C. 613]", "values": [{"measurement": "MIC", "setting": "[1]", "value": 0.8, "unit": "µM"}, {"measurement": "MIC", "setting": "[2]", "value": 0.8, "unit": "µM"}, {"measurement": "MIC", "setting": "[3]", "value": 0.4, "unit": "µM"}, {"measurement": "MIC PM 12080", "setting": "[4]", "value": "<=0.1 μM"}, {"measurement": "MIC MH 12587", "setting": "[5]", "value": 1.6, "unit": "µM"}, {"measurement": "MIC PM 6267", "setting": "[6]", "value": "<=0.1 μM"}, {"measurement": "MIC", "setting": "[7]", "value": 0.8, "unit": "µM"}, {"measurement": "MIC PM 10775", "setting": "[8]", "value": "<=0.1 μM"}, {"measurement": "MIC PM 6391", "setting": "[9]", "value": "<=0.1 μM"}, {"measurement": "MIC MH 10720", "setting": "[10]", "value": "<=0.1 μM"}]}, {"smiles": "CC(C)(C(NC(=O)c1ccc(C#Cc2ccc(CNCc3ccccn3)cc2)cc1)C(=O)NO)S(C)(=O)=O", "note": "(stereo not drawn) [C. 615]", "values": [{"measurement": "MIC", "setting": "[1]", "value": 1.6, "unit": "µM"}, {"measurement": "MIC", "setting": "[2]", "value": 0.8, "unit": "µM"}, {"measurement": "MIC", "setting": "[3]", "value": 0.4, "unit": "µM"}, {"measurement": "MIC PM 12080", "setting": "[4]", "value": "<=0.1 μM"}, {"measurement": "MIC MH 12587", "setting": "[5]", "value": 1.6, "unit": "µM"}, {"measurement": "MIC PM 6267", "setting": "[6]", "value": "<=0.1 μM"}, {"measurement": "MIC", "setting": "[7]", "value": 1.6, "unit": "µM"}, {"measurement": "MIC PM 10775", "setting": "[8]", "value": "<=0.1 μM"}, {"measurement": "MIC PM 6391", "setting": "[9]", "value": "<=0.1 μM"}, {"measurement": "MIC MH 10720", "setting": "[10]", "value": "<=0.1 μM"}]}, {"smiles": "CC(C)(C(NC(=O)c1ccc(C#Cc2ccc(CNCc3ccco3)cc2)cc1)C(=O)NO)S(C)(=O)=O", "note": "(stereo not drawn) [C. 616]", "values": [{"measurement": "MIC", "setting": "[1]", "value": 0.2, "unit": "µM"}, {"measurement": "MIC", "setting": "[2]", "value": 0.4, "unit": "µM"}, {"measurement": "MIC", "setting": "[3]", "value": 0.2, "unit": "µM"}, {"measurement": "MIC PM 12080", "setting": "[4]", "value": "<=0.1 μM"}, {"measurement": "MIC MH 12587", "setting": "[5]", "value": 0.8, "unit": "µM"}, {"measurement": "MIC PM 6267", "setting": "[6]", "value": "<=0.1 μM"}, {"measurement": "MIC", "setting": "[7]", "value": 0.8, "unit": "µM"}, {"measurement": "MIC PM 10775", "setting": "[8]", "value": "<=0.1 μM"}, {"measurement": "MIC PM 6391", "setting": "[9]", "value": "<=0.1 μM"}, {"measurement": "MIC MH 10720", "setting": "[10]", "value": "<=0.1 μM"}]}, {"smiles": "CC(C)([C@@H](NC(=O)c1ccc(C#Cc2ccc(CNCc3nccs3)cc2)cc1)C(=O)NO)S(C)(=O)=O", "note": "[C. 620]", "values": [{"measurement": "MIC", "setting": "[1]", "value": 0.2, "unit": "µM"}, {"measurement": "MIC", "setting": "[2]", "value": 0.2, "unit": "µM"}, {"measurement": "MIC", "setting": "[3]", "value": 0.2, "unit": "µM"}, {"measurement": "MIC PM 12080", "setting": "[4]", "value": "<=0.1 μM"}, {"measurement": "MIC MH 12587", "setting": "[5]", "value": 0.4, "unit": "µM"}, {"measurement": "MIC PM 6267", "setting": "[6]", "value": "<=0.1 μM"}, {"measurement": "MIC", "setting": "[7]", "value": 0.2, "unit": "µM"}, {"measurement": "MIC PM 10775", "setting": "[8]", "value": "<=0.1 μM"}, {"measurement": "MIC PM 6391", "setting": "[9]", "value": "<=0.1 μM"}, {"measurement": "MIC MH 10720", "setting": "[10]", "value": "<=0.1 μM"}]}, {"smiles": "C[C@@H](O)[C@H](NC(=O)c1ccc(C#Cc2ccc(CNCc3ccccc3)cc2)cc1)C(=O)NO", "note": "[Compound 2]", "values": [{"measurement": "MIC", "setting": "[1]", "value": 1, "unit": "µM"}, {"measurement": "MIC", "setting": "[2]", "value": 0.8, "unit": "µM"}, {"measurement": "MIC", "setting": "[3]", "value": 0.2, "unit": "µM"}, {"measurement": "MIC PM 12080", "setting": "[4]", "value": "<=0.1 μM"}, {"measurement": "MIC MH 12587", "setting": "[5]", "value": 0.8, "unit": "µM"}, {"measurement": "MIC PM 6267", "setting": "[6]", "value": "<=0.1 μM"}, {"measurement": "MIC", "setting": "[7]", "value": 0.2, "unit": "µM"}, {"measurement": "MIC PM 10775", "setting": "[8]", "value": "<=0.1 μM"}, {"measurement": "MIC PM 6391", "setting": "[9]", "value": "<=0.1 μM"}, {"measurement": "MIC MH 10720", "setting": "[10]", "value": "<=0.1 μM"}]}, {"smiles": "CC(C)C(NC(=O)c1ccc(C#Cc2ccc(CNC3CC3)cc2)cc1)C(=O)NO", "note": "(stereo not drawn) [Compound 144]", "values": [{"measurement": "MIC MH 13065", "setting": "[1]", "value": "<=0.1 μM"}, {"measurement": "MIC", "setting": "[2]", "value": 0.2, "unit": "µM"}, {"measurement": "MIC", "setting": "[3]", "value": 0.195, "unit": "µM"}, {"measurement": "MIC PM 12080", "setting": "[4]", "value": "<=0.1 μM"}, {"measurement": "MIC MH 12587", "setting": "[5]", "value": 0.2, "unit": "µM"}, {"measurement": "MIC PM 6267", "setting": "[6]", "value": "<=0.1 μM"}, {"measurement": "MIC", "setting": "[7]", "value": 1.563, "unit": "µM"}, {"measurement": "MIC PM 10775", "setting": "[8]", "value": "<=0.1 μM"}, {"measurement": "MIC", "setting": "[9]", "value": 0.098, "unit": "µM"}, {"measurement": "MIC MH 10720", "setting": "[10]", "value": "<=0.1 μM"}]}, {"smiles": "CCC(C)C(NC(=O)c1ccc(C#Cc2ccc(CNC3CC3)cc2)cc1)C(=O)NO", "note": "(stereo not drawn) [Compound 164]", "values": [{"measurement": "MIC", "setting": "[1]", "value": 0.4, "unit": "µM"}, {"measurement": "MIC", "setting": "[2]", "value": 0.4, "unit": "µM"}, {"measurement": "MIC", "setting": "[3]", "value": 0.781, "unit": "µM"}, {"measurement": "MIC", "setting": "[4]; read-out: MIC PM 12080", "value": 0.2, "unit": "µM"}, {"measurement": "MIC MH 12587", "setting": "[5]", "value": 0.8, "unit": "µM"}, {"measurement": "MIC PM 6267", "setting": "[6]", "value": "<=0.1 μM"}, {"measurement": "MIC", "setting": "[7]", "value": 0.391, "unit": "µM"}, {"measurement": "MIC PM 10775", "setting": "[8]", "value": "<=0.1 μM"}, {"measurement": "MIC", "setting": "[9]", "value": 0.391, "unit": "µM"}, {"measurement": "MIC MH 10720", "setting": "[10]", "value": "<=0.1 μM"}]}, {"smiles": "C[C@@H](O)[C@H](NC(=O)c1ccc(C#Cc2ccc(CN3CCc4ccccc4C3)s2)cc1)C(=O)NO", "note": "[Compound 194]", "values": [{"measurement": "MIC", "setting": "[1]", "value": 0.4, "unit": "µM"}, {"measurement": "MIC", "setting": "[2]", "value": 0.8, "unit": "µM"}, {"measurement": "MIC", "setting": "[3]", "value": 0.8, "unit": "µM"}, {"measurement": "MIC PM 12080", "setting": "[4]", "value": "<=0.1 μM"}, {"measurement": "MIC MH 12587", "setting": "[5]", "value": 0.8, "unit": "µM"}, {"measurement": "MIC PM 6267", "setting": "[6]", "value": "<=0.1 μM"}, {"measurement": "MIC", "setting": "[7]", "value": 0.2, "unit": "µM"}, {"measurement": "MIC PM 10775", "setting": "[8]", "value": "<=0.1 μM"}, {"measurement": "MIC PM 6391", "setting": "[9]", "value": "<=0.1 μM"}, {"measurement": "MIC MH 10720", "setting": "[10]", "value": "<=0.1 μM"}]}]}
